Test results: patent US20230126568A1, “PRODUCTION METHOD FOR […] AND UTILIZATION THEREOF” (FUJIFILM Corporation, priority 2020, published 2023)
Like-named read-outs stand apart in the source and are kept apart here.

What was measured:
[1] = small intestine of a living body; cited from earlier work
[2] = tested on: intestinal epithelial cells; test: Fg of midazolam calculated from the permeation test (Expression 1 / Expression 2); type: in vitro ADME, human; settings: cells of Example 4
Method: Fg=(the B60 substrate amount+the cell 60 substrate amount)/(the B60 substrate amount +cell 60 substrate amount+the total 60 metabolite amount) (Expression 1)
The B60 substrate amount: The mass of the substrate permeated to the B side 60 minutes after the test substance serving as a substrate was added to the A side.
The cell 60 substrate amount: The mass of the substrate accumulated in the cells 60 minutes after the test substance serving as a substrate was added to the A side.
The total 60 metabolite amount: Total amount of the metabolite accumulated on the A, on the B side, and in the cells 60 minutes after the test substance serving as a substrate was added to the A side.

[3] = tested on: small intestinal tissue of a living body; settings: in vitro; cited from earlier work
[4] = Midazolam permeability of intestinal epithelial cells (apical to basolateral, cell culture insert); type: in vitro ADME; settings: human; for Papp A→B at 60 min, 10 μmol/L: 10 μmol/L midazolam apical pH 6.5, basolateral pH 7.4, 37° C., read-out: Apparent permeability coefficient; for Papp at 60 min, 10 μmol/L: read-out: Apparent permeability coefficient after correction
Method: The midazolam permeability of the intestinal epithelial cells obtained in Comparative Examples 1 and Examples 1 to 5 was evaluated. After the end of the induction of differentiation, HBSS (pH 6.5) was added to the apical side and HBSS (pH 7.4) was added to the lower bottom (basolateral) side, and pre-incubation was carried out at 37° C. for 60 minutes. Then, HBSS (pH 6.5) containing 10 μmol/L midazolam was added to the apical side, and HBSS (pH 7.4) was added to the lower bottom (basolateral) side, and incubation was carried out at 37° C. for 60 minutes. A sample was collected from the lower bottom (basolateral) side every 15 minutes. The amount of each compound (unchanged form) was quantified using a liquid chromatography-mass spectrometer (LC-MS/MS). The apparent permeability coefficient (Papp) was calculated from the quantification result.
The apparent permeability coefficient was corrected by using the scaling factor x for the apparent permeability coefficient of Example 4 obtained in Test Example 6. At this time, the following expression was used.
The permeation amount per unit time=(the B60 substrate amount−x ×the difference in the B60 substrate amount due to the presence or absence of the addition of the metabolism inhibitor)/the permeation time

Cc1ncc2n1-c1ccc(Cl)cc1C(c1ccccc1F)=NC2 [midazolam]
Fa (absorption rate in the intestinal tract) [1]: 1.0
Fg simply calculated by Expression 1 ([2]; no scaling factor): 0.83
Fg after correction ([2]; scaling factor x = 1): 0.83
Fg after correction ([2]; scaling factor x = 2): 0.70
Fg after correction ([2]; scaling factor x = 4): 0.54
Fg after correction ([2]; scaling factor x = 6): 0.44
Fg after correction ([2]; scaling factor x = 8): 0.37
Fg after correction ([2]; scaling factor x = 10): 0.32
Fg after correction ([2]; scaling factor x = 12): 0.28
apparent permeability coefficient [3]: 5 ×10⁻⁶ cm/s
Papp A→B at 60 min, 10 μmol/L ([4]; cells of Comparative Example 1): 48 ×10⁻⁶ cm/s
Papp A→B at 60 min, 10 μmol/L ([4]; cells of Example 1): 30 ×10⁻⁶ cm/s
Papp A→B at 60 min, 10 μmol/L ([4]; cells of Example 2): 32 ×10⁻⁶ cm/s
Papp A→B at 60 min, 10 μmol/L ([4]; cells of Example 3): 33 ×10⁻⁶ cm/s
Papp A→B at 60 min, 10 μmol/L ([4]; cells of Example 4): 31 ×10⁻⁶ cm/s
Papp at 60 min, 10 μmol/L ([4]; cells of Example 4, scaling factor x = 2): 21.9 ×10⁻⁶ cm/s
Papp at 60 min, 10 μmol/L ([4]; cells of Example 4, scaling factor x = 3): 15.2 ×10⁻⁶ cm/s
Papp at 60 min, 10 μmol/L ([4]; cells of Example 4, scaling factor x = 4): 8.6 ×10⁻⁶ cm/s
Papp at 60 min, 10 μmol/L ([4]; cells of Example 4, scaling factor x = 5): 1.9 ×10⁻⁶ cm/s
Papp at 60 min, 10 μmol/L ([4]; cells of Example 4, scaling factor x = 5.2): 0.6 ×10⁻⁶ cm/s
Papp A→B at 60 min, 10 μmol/L ([4]; cells of Example 5): 31 ×10⁻⁶ cm/s
